Reference: US20220030868A1, “FUNGICIDAL HALOMETHYL KETONES AND HYDRATES” (FMC CORPORATION, priority 2018, published 2022)
Marks after values point to notes of the source that are not given here.

Experiments:
[1] = test system: Phakopsora pachyrhizi; experiment: Test A: test suspension sprayed on soybean seedlings one day before inoculation with Phakopsora pachyrhizi spores (Asian soybean rust), visual disease rating; format: in vivo; settings: 100 = 100% disease control, 0 = no control; for pest or weed control at 50 ppm: 50 ppm test suspension
How it was run: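 Soybean seedlings were sprayed to run-off with test suspension (acetone 3% of volume, acetone/water 50/50, 250 ppm PEG400) and inoculated with rust spores one day later. Incubation: 24 h saturated atmosphere at 22° C, then 8 days growth chamber at 22° C; scores 0–100 relative to untreated controls.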

[2] = test system: Puccinia recondita f. sp. tritici; experiment: Test B: test suspension sprayed on wheat seedlings one day before inoculation with Puccinia recondita f. sp. tritici spores (wheat leaf rust), disease rating; format: in vivo; settings: 100 = 100% disease control, 0 = no control; for pest or weed control at 50 ppm: 50 ppm test suspension
How it was run: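 Wheat seedlings were sprayed to run-off with compound suspended in 50/50 acetone/water containing 250 ppm PEG400, then inoculated with P. recondita f. sp. tritici spores the next day. Plants were held 24 h in saturated air at 20 °C, then 6 days in a growth chamber at 20 °C. Disease control was rated 0–100% relative to controls, with some entries run at 50 or 10 ppm.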

[3] = test system: Uncinula necator; experiment: Test C: test suspension sprayed on grape seedlings one day before inoculation with Uncinula necator spores (grape powdery mildew), disease rating; format: in vivo; settings: 100 = 100% disease control; for Test C rating (disease control) / pest or weed control at 50 ppm: 50 ppm test suspension
Description: General protocol for preparing test suspensions for Tests A-C: the test compounds were first dissolved in acetone in an amount equal to 3% of the final volume and then suspended at the desired concentration (in ppm) in acetone and purified water (50/50 mix by volume) containing 250 ppm of the surfactant PEG400 (polyhydric alcohol esters). The resulting test suspensions were then used in Tests A-C. The test solution was sprayed to the point of run-off on grape seedlings. The following day the seedlings were inoculated with a spore suspension of Uncinula necator (the causal agent of grape powdery mildew) and incubated in a growth chamber at 20° C. for 12 days, after which time disease ratings were made. Results for Tests A-C are given in Table A. In the Table, a rating of 100 indicates 100% disease control and a rating of 0 indicates no disease control (relative to the controls). An asterisk “*” or a double asterisk “**” next to the rating value indicates a 50 ppm or 10 ppm test suspension was used, respectively. A dash (-) indicates the compound was not tested.

[4] = Phakopsora pachyrhizi, 10 ppm test suspension

SMILES | Test A rating (disease control) ([1]; 10 ppm test suspension) [%] | Test B rating (disease control) ([2]; 10 ppm test suspension) [%] | Test C rating (disease control) [3] | pest or weed control at 10 ppm [1, 4] [%] | pest or weed control at 10 ppm ([2]; 10 ppm test suspension) [%] | pest or weed control at 50 ppm ([3]; Erysiphe necator) [%] | also measured
CCO/C(=C\Oc1ccc(Cc2ncc(C(=O)NCC(F)F)s2)cc1)C(F)(F)F [compound 276] | 13 | 0 | 100* % | – | – | – | –
O=C(OCC1CC1)c1cnn(Cc2ccc(OCC3(C(F)(F)F)OCCO3)cc2)c1 [Compound 127, cyclopropylmethyl 1-[[4-[[2-(trifluoromethyl)-1,3-dioxolan-2-yl]methoxy]phenyl]methyl]-1H-pyrazole-4-carboxylate] | – | – | – | 100 | 0 | 100 | –
CCO/C(=C\Oc1ccc(Cn2cc(C(=O)OCCCCl)cn2)cc1)C(F)(F)F [Compound 221, 3-chloropropyl 1-[[4-[[(1Z)-2-ethoxy-3,3,3-trifluoro-1-propen-1-yl]oxy]phenyl]methyl]-1H-pyrazole-4-carboxylate] | – | – | – | 100 | 0 | 100 | –
CCOC(=O)c1cnn(Cc2ccc(OCC3(C(F)(F)F)OCCO3)cc2)c1 [Compound 32, ethyl 1-[[4-[[2-(trifluoromethyl)-1,3-dioxolan-2-yl]methoxy]phenyl]methyl]-1H-pyrazole-4-carboxylate] | – | – | – | – | – | 100 | pest or weed control at 50 ppm ([1]; Phakopsora pachyrhizi): 100%; pest or weed control at 50 ppm [2]: 68%
CCO/C(=C\Oc1ccc(Cn2cc(C(=O)OCC(C)=O)cn2)cc1)C(F)(F)F [compound 216] | 100 | 0 | 100* % | – | – | – | –
CCOC(=O)c1cnn(Cc2ccc(O/C=C(\OCC)C(F)(F)F)cc2)c1 [Compound 64, ethyl 1-[[4-[[(1Z)-2-ethoxy-3,3,3-trifluoro-1-propen-1-yl]oxy]phenyl]methyl]-1H-pyrazole-4-carboxylate] | – | – | – | – | – | – | pest or weed control at 250 ppm ([1]; Phakopsora pachyrhizi, 250 ppm test suspension): 100%; pest or weed control at 250 ppm ([2]; 250 ppm test suspension): 99%; pest or weed control at 10 ppm ([3]; Erysiphe necator, 10 ppm test suspension (double asterisk)): 100%
C#CCOC(=O)c1cnn(Cc2ccc(O/C=C(\OCC)C(F)(F)F)cc2)c1 [compound 185] | 100 | 0 | 100* % | – | – | – | –
N#CCCCOC(=O)c1cnn(Cc2ccc(OCC3(C(F)(F)F)OCCO3)cc2)c1 [Compound 171, 3-cyanopropyl 1-[[4-[[2-(trifluoromethyl)-1,3-dioxolan-2-yl]methoxy]phenyl]methyl]-1H-pyrazole-4-carboxylate] | – | – | – | 100 | 0 | 99 | –
CCCCOC(=O)c1cnn(Cc2ccc(O/C=C(\OCC)C(F)(F)F)cc2)c1 [Compound 218, butyl 1-[[4-[[(1Z)-2-ethoxy-3,3,3-trifluoro-1-propen-1-yl]oxy]phenyl]methyl]-1H-pyrazole-4-carboxylate] | – | – | – | 100 | 0 | 100 | –
CCOC(=O)c1cnn(Cc2cccc(O/C=C(\OCC)C(F)(F)F)c2)c1 [Compound 265, ethyl 1-[[3-[[(1Z)-2-ethoxy-3,3,3-trifluoro-1-propen-1-yl]oxy]phenyl]methyl]-1H-pyrazole-4-carboxylate] | – | – | – | – | – | 100 | pest or weed control at 50 ppm ([1]; Phakopsora pachyrhizi): 100%; pest or weed control at 50 ppm [2]: 0%
CC(C)COC(=O)c1cnn(Cc2ccc(OCC3(C(F)(F)F)OCCO3)cc2)c1 [Compound 126, 2-methylpropyl 1-[[4-[[2-(trifluoromethyl)-1,3-dioxolan-2-yl]methoxy]phenyl]methyl]-1H-pyrazole-4-carboxylate] | – | – | – | 100 | 0 | 100 | –
O=C(COC(=O)c1cnn(Cc2ccc(OCC3(C(F)(F)F)OCCO3)cc2)c1)c1ccccc1 [compound 170] | 100 | 0 | 100* % | – | – | – | –
CC#CCOC(=O)c1cnn(Cc2ccc(OCC3(C(F)(F)F)OCCO3)cc2)c1 [Compound 163, 2-butyn-1-yl 1-[[4-[[2-(trifluoromethyl)-1,3-dioxolan-2-yl]methoxy]phenyl]methyl]-1H-pyrazole-4-carboxylate] | – | – | – | 100 | 0 | 100 | –
CCOC(=O)c1cnn(Cc2ccc(O/C=C(\OC(C)C)C(F)(F)F)cc2)c1 [compound 57] | – | – | 100* % | – | – | – | Test A rating (disease control) ([1]; 250 ppm test suspension): 100%; Test B rating (disease control) ([2]; 250 ppm test suspension): 0%
CCO/C(=C\Oc1ccc(Cn2cc(C(=O)OCC(C)C)cn2)cc1)C(F)(F)F [compound 219] | 100 | 0 | 100* % | – | – | – | –
CCCOC(=O)c1cnn(Cc2ccc(O/C=C(\OCC)C(F)(F)F)cc2)c1 [compound 217] | 100 | 0 | 100* % | – | – | – | –
COCCOC(=O)c1cnn(Cc2ccc(OCC3(C(F)(F)F)OCCO3)cc2)c1 [Compound 162, 2-methoxyethyl 1-[[4-[[2-(trifluoromethyl)-1,3-dioxolan-2-yl]methoxy]phenyl]methyl]-1H-pyrazole-4-carboxylate] | – | – | – | 100 | 0 | 100 | –
CCO/C(=C\Oc1ccc(Cn2cc(C(=O)OCCC#N)cn2)cc1)C(F)(F)F [compound 245] | 100 | 0 | 98* % | – | – | – | –
CCOC(=O)c1cnn(CCc2ccc(O/C=C(\OCC)C(F)(F)F)cc2)c1 [Compound 132, ethyl 1-[2-[4-[[(1Z)-2-ethoxy-3,3,3-trifluoro-1-propen-1-yl]oxy]phenyl]ethyl]-1H-pyrazole-4-carboxylate] | – | – | – | 100 | 0 | 98 | –
CCOC(=O)c1cnn(Cc2ccc(O/C=C(\OCC)C(F)(F)F)c(F)c2)c1 [Compound 262, ethyl 1-[[4-[[(1Z)-2-ethoxy-3,3,3-trifluoro-1-propen-1-yl]oxy]-3-fluorophenyl]methyl]-1H-pyrazole-4-carboxylate] | – | – | – | 100 | 0 | 99 | –
CCO/C(=C\Oc1ccc(Cn2cc(C(=O)OCC3CC3)cn2)cc1)C(F)(F)F [compound 220] | 100 | 0 | 100* % | – | – | – | –
CCO/C(=C\Oc1ccc(Cn2cc(C(=O)OCc3ccccc3)cn2)cc1)C(F)(F)F [Compound 186, phenylmethyl 1-[[4-[[(1Z)-2-ethoxy-3,3,3-trifluoro-1-propen-1-yl]oxy]phenyl]methyl]-1H-pyrazole-4-carboxylate] | – | – | – | 100 | 0 | 100 | melting point: 63 to 67 °C
O=C(NCC1CC1)c1csc(Cc2ccc(OCC3(C(F)(F)F)OCCO3)cc2)n1 [Compound 71, N-(cyclopropylmethyl)-2-[[4-[[2-(trifluoromethyl)-1,3-dioxolan-2-yl]methoxy]phenyl]-methyl]thiazole-4-carboxamide] | – | – | – | 100 | 96 | – | melting point: 88 to 92 °C
CCOC(=O)c1cnn(Cc2ccc(OCC3(C(F)(F)F)OCCO3)cn2)c1 [compound 124] | – | – | – | – | – | 100 | pest or weed control at 50 ppm ([1]; Phakopsora pachyrhizi): 100%; pest or weed control at 50 ppm [2]: 0%
CCO/C(=C\Oc1ccc(Cn2cc(C(=O)OC)cn2)cc1)C(F)(F)F [compound 138] | 100 | 0 | 100* % | – | – | – | –
